Results reported in patent publication US9566311B2, “Pharmaceutical composition” (Ferring B.V., priority 2010, dated 2017).
Numbered stars: 1 amine (or outer) side, 2 acyl side, 3 side chain; on linkers, the order of the positions; unused ones are H or OH. Bridge positions count the residues as written; N and C are the ends. Peptide text beside a SMILES is read from it. X1 = O=C(CCC[*:2])[*:1]

Experiments:
[1] = in vivo, cited from earlier work
[2] = Stability of FE 202767 in citrate and citrate-phosphate buffers at 40° C., intact peptide by HPLC; assay type: physicochemical
Procedure: FE 202767 (Ferring) was synthesised by the method set out in WO2009/122285. FE 202767 was dissolved at a concentration of 0.2 mg/ml in either 25 mM citrate buffer (isotonic to saline) or 25 mM citrate-phosphate buffer (isotonic with saline) at varying pH (pH 5.0, 5.5, 6.0), by methods known in the art. The solutions were incubated at 40° C. for 176 days, with samples taken at day 0, 15, 30, 84, and 176.
Samples were evaluated by HPLC to determine the amount of intact peptide remaining at the various time points, by methods well known in the art, comparing the % Area. of the intact peptide peak on the sampling day vs. % Area on Day 0.
The HPLC method used an Agilent 1200 instrument. […] The Phenomenex MAX-RP C18, 2.0×150 mm, 4 μm, 80 Å column was at temperature 40 with UV detection at 210 nm. The injection volume was 10 μL.

[3] = Stability of FE 202767 in various buffers at 40° C./75% RH for one and three months, HPLC; assay type: physicochemical
Procedure: The method was similar to Example 7. FE 202767 (Ferring) was synthesised by the method set out in WO2009/122285. The FE 202767 was dissolved at a concentration of 0.2 mg/ml in either 25 mM citrate buffer (citric acid/Na citrate), 10 mM acetate buffer (acetic acetate/Na acetate) or 10 mM succinate buffer (1 mM succinic acid+NaOH to relevant pH) at varying pH (pH 5.0, 5.2, 5.5, 5.65, 5.8, 6.0), by methods known in the art. As set out in the table below, the various samples also included isotonicity agent (NaCl, 7 mg/mL or mannitol 47 mg/mL) to achieve isotonicity. Some of the samples included […] (methionine 1 mg/mL, EDTA 1 mg/mL, or combination of EDTA 1 mg/mL and methionine 1 mg/mL). Each formulation (see Table below) was filled in a 10R glass vial sealed with a rubber stopper and an aluminium cap.
The solutions were incubated at 40° C. at 75% RH, with samples taken at day 30 (1 month), and day 90 (3 months).
Samples were evaluated by HPLC to determine the amount of intact peptide remaining at the various time points, by methods well known in the art, comparing the % Area of the intact peptide peak on the sampling day vs. % Area on Day 0.
The HPLC method used an Agilent 1100 instrument. The mobile phases where HPLC Buffers A (A=0.1% TFA in water) and B (B=0.1% TFA in acetonitrile) with the gradient 20 to 30% B in 40 min, then 30 to 60% B in 15 min, then 60 to 20% B in 1 min and then 20% B for 10 min at flow rate 0.5 mL/min. The Zorbax 300SB C16, 3.0×150 mm, 3.5 μm, 300 Å column was at temperature 25 with UV detection at 214 nm. The injection volume was 15 μL

CC[C@H](C)[C@@H]1NC(=O)[C@H](Cc2ccc(OC)cc2)NC(=O)CCCSC[C@@H](C(=O)N2CCC[C@H]2C(=O)N[C@@H](CC(C)C)C(=O)NCC(N)=O)NC(=O)[C@H](CC(N)=O)NC(=O)[C@H](CCC(N)=O)NC1=O [carbetocin, (1-desamino-1-monocarba-2(O-methyl)-tyrosine)oxytocin] (Y(Me)IQNCPLG-NH2; linker N-5 via X1)
bioavailability ([1]; human, im): 80% | half-life ([1]; human, iv): approximately 40 minutes | half-life relative to the reported half-life of oxytocin ([1]; iv): 4 to 10 times longer | time to peak plasma concentrations [1]: less than thirty minutes

CC[C@H](C)[C@@H]1NC(=O)[C@H](Cc2ccc(O)cc2)NC(=O)[C@@H](N)CSSC[C@@H](C(=O)N2CCC[C@H]2C(=O)N[C@@H](CC(C)C)C(=O)NCC(N)=O)NC(=O)[C@H](CC(N)=O)NC(=O)[C@H](CCC(N)=O)NC1=O [oxytocin]
reported half-life [1]: 4 to 10 min

carba-1-[4-FBzIGly^7]dOT [FE 202767]
intact peptide remaining ([2]; after 176 days at 40° C. in citrate buffer at pH 5.0 and 5.5): > 95% | intact peptide remaining ([2]; after 176 days at 40° C. in citrate-phosphate buffers, pH 5.0, 5.5 and 6.0, each condition): > 95% | degradation (in words) ([2]; after 176 days at 40° C. in pH 6.0 citrate buffer): significant degradation | stability (in words) ([3]; citrate and acetate buffers in the pH range tested, after 30 days at 40° C.): good stability | stability (in words) ([3]; citrate and acetate buffers in the pH range tested, after 90 days at 40° C.): good stability | stability (in words) ([3]; succinate buffer at pH 5.0 to 5.65, after 30 days at 40° C.): very stable | stability (in words) ([3]; succinate buffer at pH 5.0 to 5.65, after 90 days at 40° C.): stable
